Results published in patent publication US12344631B2, “C17 polar-substituted heteroaromatic synthetic triterpenoids and methods of use thereof” (REATA PHARMACEUTICALS, INC., priority 2019, dated 2025).

Columns and labels:
[1] = system: RAW 264.7 cells; assay: Nitric oxide suppression assay (IFNγ-induced NO production); format: cell-based, mouse; conditions: for IC50: Mus musculus, RAW264.7, RAW 264.7 cells, 2 h pretreatment, 20 ng/mL interferon gamma 24 h, nitrite by Griess, read-out: NO IC50 (nM) (Mean ± SD); for NO IC50 Relative to RTA 402 (fold) (Mean ± SD): average of ratios from replicate experiments, benchmark RTA 402
Procedure: Tissue Culture. RAW 264.7, a mouse macrophage cell line, was obtained from American Type Culture Collection (Manassas VA) and maintained in the log phase of growth in Roswell Park Memorial Institute Medium 1640 (RPMI 1640) supplemented with 10% heat inactivated fetal bovine serum (FBS) and 1% penicillin-streptomycin. Cells were cultured and maintained in a humidified incubator at 37° C. under 5% CO2. Cells were sub-cultured every 3 days. […] All cell culture supplies were obtained from Life Technologies (Grand Island, NY) and VWR (Radnor, PA). Nitric Oxide Suppression Assay. RAW 264.7 cells were plated 1 day in advance of experimental treatments at a concentration of 30,000 cells per well onto Falcon-96 well clear bottom plates (Corning, NY) in a total volume of 200 μL per well using RPMI 1640 supplemented with 0.5% fetal bovine serum and 1% penicillin-streptomycin. The next day, cells were pretreated with compounds serially diluted from 1000× stocks. All compounds were dissolved in dimethyl sulfoxide (DMSO) at 10 mM stock solutions. Compounds were subsequently diluted in DMSO and RPMI 1640. Each well received a final concentration of 0.1% DMSO. Cells were pretreated for 2 hours and incubation at 37° C., followed by treatment with 20 ng/mL of interferon gamma (R&D Systems, Minneapolis, MN) per well for 24 hours. […] Afterwards, 50 μL of cell culture supernatant was transferred from each well into a new Falcon-96 well clear bottom plate. […] Afterwards, air bubbles were removed using ethanol vapor and absorbance was measured using a Spectramax M2e plate reader with a wavelength set to 525 nm. Viability was assessed using WST-1 cell proliferation reagent from Roche (Basel, Switzerland). After media was removed for the Nitric Oxide suppression assay, 15 μL of WST-1 reagent was added to each well of cells. Plates were briefly mixed on an orbital shaker and the cells were incubated at 37° C. for 30 minutes. Absorbance was measured using a Spectramax M2e plate reader with wavelengths set to 440 nm and 700 nm. For the ability of compounds to suppress the increase in nitric oxide release caused by interferon gamma, the absolute amount of nitrite that was produced in each well was extrapolated from the nitrite standards using a linear regression fit. All values were then normalized to the DMSO-interferon gamma treated wells and plotted as percent nitric oxide. IC50 values were calculated with a dependence on WST1 viability using Excel and/or GraphPad Prism (San Diego, CA).

[2] = system: AML-12 hepatocyte cell line; assay: Glutathione assay (total glutathione, GSH-Glo); format: cell-based, mouse; conditions: for EC50: Mus musculus, AML12, AML-12 cells, 24 hours, total glutathione, read-out: GSH EC50 (nM) (Mean ± SD); for GSH EC50 Relative to RTA 402 (fold) (Mean ± SD): benchmark RTA 402
Procedure: The effect of compound treatment on total glutathione levels was evaluated in the mouse AML-12 hepatocyte cell line. Glutathione—a tripeptide consisting of cysteine, glutamate, and glycine—is the major thiol-containing protein within the cell and regulates cellular redox balance. Glutathione also plays important roles in detoxification, protein glutathionylation, and iron-sulfur cluster biogenesis (Bachhawat and Yadav, 2018). Nrf2 regulates the expression of many genes involved in glutathione synthesis and metabolism, including both subunits of glutamate cysteine ligase (GCL), the enzyme that catalyzes the rate limiting step of glutathione biosynthesis (Thimmulappa et al., 2002). […] The next day, cells were treated with vehicle (DMSO) or test compound (0.03 nM to 1000 nM). Each well received a final concentration of 0.1% DMSO. Cells were incubated at 37° C., 5% CO2 for 24 hours. Total glutathione concentrations were measured using the GSH-Glo Glutathione Assay kit (Promega) according to the manufacturer's instructions. Briefly, a standard curve was prepared by serially diluting the provided glutathione solution. […] After a 30-minute incubation at room temperature, 100 μL of Luciferin detection reagent was added to all sample and standard wells and incubated for 15 minutes. Luminescence was measured using a PHERAstar plate reader. The EC50 value was determined using Excel and GraphPad Prism software. The basal concentration of glutathione was set to 0% and the highest concentration of glutathione produced following treatment with a test compound was set to 100% and a dose-response curve was generated. The dose-response curve was fit using nonlinear regression analysis and used to extrapolate the EC50 value.

[3] = system: AREc32 reporter cell line (antioxidant response element of rat Gsta2, Nrf2 target gene); assay: AREc32 luciferase reporter activation; format: cell-based, human; conditions: for AREc32 EC2X Relative to RTA 402 (fold) (Mean ± SD): average of ratios from replicate experiments, benchmark RTA 402; for EC (2-fold): human, Arec32, 19 h, concentration increasing luminescence signal 2-fold above vehicle, nineteen hours, read-out: AREc32 EC2X (nM) (Mean ± SD); for AREc32 Relative to CC in Same Experiment (Mean ± SD): average of ratios from experiments with direct comparisons
Procedure: […] The effect of several compounds disclosed herein on luciferase reporter activation was assessed in the AREc32 reporter cell line (see Table 10 and Table 11). This cell line is derived from human breast carcinoma MCF-7 cells and is stably transfected with a luciferase reporter gene under the transcriptional control of eight copies of the antioxidant response element from the rat Gsta2 gene, an Nrf2 target gene ([…] et al., 1990). […] Twenty-four hours after plating, cells were treated with vehicle (DMSO) or test compounds at concentrations ranging from 0.03 to 1000 nM for nineteen hours. Media was removed and 100 μL of 1:1 mixture of the One-Glo Luciferase assay reagent and culture medium was added to each well. After incubation for 5 min at room temperature, the luminescence signal was measured on a PHERAstar plate reader. The EC2X value was determined using Excel and GraphPad Prism software. The fold increase in luminescence signal for cells treated with each concentration of compound relative to cells treated with vehicle was determined and a dose-response curve was generated. The dose-response curve was fit using nonlinear regression analysis and used to extrapolate the EC2X value.

Row | Structure (SMILES) | IC50 [1] [nM] | NO IC50 Relative to RTA 402 (fold) (Mean ± SD) [1] | EC50 [2] [nM] | GSH EC50 Relative to RTA 402 (fold) (Mean ± SD) [2] | AREc32 EC2X Relative to RTA 402 (fold) (Mean ± SD) [3] | EC (2-fold) [3] [nM] | AREc32 Relative to CC in Same Experiment (Mean ± SD) ([3]; comparison compound CC3) | AREc32 Relative to CC in Same Experiment (Mean ± SD) ([3]; comparison compound CC2)
1 | CC1(C)CC[C@]2(c3nnn(CCF)n3)CC[C@]3(C)[C@H](C(=O)C=C4[C@@]5(C)C=C(C#N)C(=O)C(C)(C)[C@@H]5CC[C@]43C)[C@@H]2C1 [Compound T10] | 2.2 ± 0.2 | 1.62 ± 0.16 | 1.45 ± 0.17 | 1.14 ± 0.03 | 2.41 ± 0.98 | 28.4 ± 9.42 | – | –
2 | CCc1nc([C@]23CCC(C)(C)C[C@H]2[C@H]2C(=O)C=C4[C@@]5(C)C=C(C#N)C(=O)C(C)(C)[C@@H]5CC[C@@]4(C)[C@]2(C)CC3)no1 [Compound T24] | 9.21 | 2.56 ± 0.62 | 6.11 ± 2.23 | 2.53 ± 0.52 | 2.50 ± 0.66 | 32.2 ± 2.59 | – | –
3 | CC1(C)CC[C@]2(c3noc(C4CC4)n3)CC[C@]3(C)[C@H](C(=O)C=C4[C@@]5(C)C=C(C#N)C(=O)C(C)(C)[C@@H]5CC[C@]43C)[C@@H]2C1 [Compound T25] | 11.2 ± 2.09 | 3.08 ± 1.54 | 9.07 ± 1.55 | 3.36 ± 0.34 | 4.39 ± 0.23 | 44 ± 1.2 | – | –
4 | COCCc1nc([C@]23CCC(C)(C)C[C@H]2[C@H]2C(=O)C=C4[C@@]5(C)C=C(C#N)C(=O)C(C)(C)[C@@H]5CC[C@@]4(C)[C@]2(C)CC3)no1 [Compound T6] | 2.95 ± 0.11 | 0.79 ± 0.29 | 2.9 ± 0.96 | 1.07 ± 0.28 | 1.77 ± 0.15 | 17.66 ± 0.1 | – | –
5 | Cn1nnc([C@]23CCC(C)(C)C[C@H]2[C@H]2C(=O)C=C4[C@@]5(C)C=C(C#N)C(=O)C(C)(C)[C@@H]5CC[C@@]4(C)[C@]2(C)CC3)n1 [Compound T21] | 1.89 ± 0.67 | 0.76 ± 0.36 | 3.18 ± 2.22 | 0.95 ± 0.34 | 1.67 ± 0.15 | 16.2 ± 4.2 | – | –
6 | C[C@@H]1C(=O)C(C#N)=C[C@]2(C)C3=CC(=O)[C@@H]4[C@@H]5CC(C)(C)CC[C@]5(c5nc(C(F)F)no5)CC[C@@]4(C)[C@]3(C)CC[C@@H]12 [Compound T35] | 5.48 ± 3.04 | 1.21 ± 0.21 | 1.99 ± 0.42 | 1.02 ± 0.04 | 0.73 ± 0.14 | 10.7 ± 1.02 | 1.66 ± 0.31 | –
7 | CC1(C)CC[C@]2(c3nc(C(F)F)no3)CC[C@]3(C)[C@H](C(=O)C=C4[C@@]5(C)C=C(C#N)C(=O)C(C)(C)[C@@H]5CC[C@]43C)[C@@H]2C1 [Compound T43] | 6.45 ± 1.29 | 1.90 ± 0.49 | 3.29 ± 0.55 | 1.60 ± 0.05 | 0.62 ± 0.09 | 9.92 ± 2.32 | – | 1.09 ± 0.09
8 | CC1(C)CC[C@]2(c3noc(CO)n3)CC[C@]3(C)[C@H](C(=O)C=C4[C@@]5(C)C=C(C#N)C(=O)C(C)(C)[C@@H]5CC[C@]43C)[C@@H]2C1 [Compound T4] | 1.82 | 0.48 ± 0.13 | 2.46 ± 1.8 | 0.89 ± 0.61 | 1.04 ± 0.02 | 10.5 ± 1.03 | – | –
9 | CC1(C)CC[C@]2(c3nnn(CCO)n3)CC[C@]3(C)[C@H](C(=O)C=C4[C@@]5(C)C=C(C#N)C(=O)C(C)(C)[C@@H]5CC[C@]43C)[C@@H]2C1 [Compound T7] | 1.13 ± 0.18 | 0.43 ± 0.13 | 2.87 ± 3.17 | 0.80 ± 0.59 | 1.10 ± 0.33 | 10.5 ± 3.66 | – | –
10 | Cc1nc([C@]23CCC(C)(C)C[C@H]2[C@H]2C(=O)C=C4[C@@]5(C)C=C(C#N)C(=O)C(C)(C)[C@@H]5CC[C@@]4(C)[C@]2(C)CC3)no1 [Compound T20] | 3.79 | 1.30 ± 0.26 | 1.66 ± 0.66 | 0.96 ± 0.15 | 1.50 ± 0.18 | 21.5 ± 2.85 | – | –
11 | CC1(C)CC[C@]2(c3nc(CCO)no3)CC[C@]3(C)[C@H](C(=O)C=C4[C@@]5(C)C=C(C#N)C(=O)C(C)(C)[C@@H]5CC[C@]43C)[C@@H]2C1 [Compound T13] | 0.56 | 0.22 ± 0.07 | 2.04 ± 1.94 | 0.55 ± 0.33 | 0.37 ± 0.04 | 3.53 ± 0.98 | – | 0.44 ± 0.07
12 | CCc1noc([C@]23CCC(C)(C)C[C@H]2[C@H]2C(=O)C=C4[C@@]5(C)C=C(C#N)C(=O)[C@@H](C)[C@@H]5CC[C@@]4(C)[C@]2(C)CC3)n1 [Compound T37] | 3.45 ± 1.87 | 0.76 ± 0.12 | 1.69 ± 0.19 | 0.88 ± 0.13 | 0.69 ± 0.06 | 10.3 ± 1.35 | 1.58 ± 0.16 | –
13 | CC1(C)CC[C@]2(c3noc(C(F)(F)F)n3)CC[C@]3(C)[C@H](C(=O)C=C4[C@@]5(C)C=C(C#N)C(=O)C(C)(C)[C@@H]5CC[C@]43C)[C@@H]2C1 [Compound T40] | 24.2 ± 7.64 | 7.76 ± 2.19 | 18.3 ± 2.19 | 8.96 ± 0.68 | 4.76 ± 0.93 | 64.9 ± 12.6 | – | –
